The values below come from US20050261164A1, “Remedy for urinary frequency and urinary incontinence” (FUJISAWA PHARMACEUTICAL CO., LTD., priority 2002, published 2005).

This assay concerns rhythmic bladder contraction, male SD rats. Nature of the assay: rhythmic bladder contraction model of a rat (frequent urination model). The conditions noted are these: urethane-anesthetized male SD rats, intravenous, 0 to 10 minutes after the administration. The format is in vivo. On the procedure:
Male SD rats (7 to 10 weeks old, Japan SLC) were anesthetized with urethane (1 to 1.2 g/kg, intraperitoneal administration) and their lower abdomen were opened along the midline. After performing a small dissection at the apex of the bladder, a cannula (Hibiki, size 5) attached with a balloon of about 1 ml volume was inserted into the bladder. A cannula for drug administration (PE50, Becton Dickinson) was inserted into the femoral vein. The cannula for measuring intravesical pressure was connected to a pressure transducer attached with a three-way cock and water was injected into the balloon from a free opening of the three-way cock to cause rhythmic bladder contraction. The intravesical pressure at that time was recorded by a thermal recorder (Recti-Horiz8K, NEC Sanei) via an amplifier (AP-601G, Nihon Kohden). The bladder contractile frequency and force were measured every 10 minutes before the administration of a test compound and for 0 to 10 and 10 to 20 minutes after the administration. Statistical analysis was performed using randomized block analysis of variance and Dunnett's multiple comparison with respect to the measurement values obtained before the administration.

Where a name gives a salt, the structure may show the parent alone.

Consider “(2,3-dihydro-9-methanesulfonyl-1-benzoxepin-4-carbonyl)guanidine dihydrochloride [test compound 3]”, for which the “effect on bladder contractile force” value (1 mg/kg) is given as “without significantly affecting”. The “bladder contractile frequency, % of the value obtained before the administration” value (“bladder contractile frequency, %” below) (1 mg/kg, p<0.05) is listed as 41%.

In the case of `CN(C)CCNC(=O)c1cc(C(=O)N=C(N)N)cc(-c2cc(Cl)sc2Cl)c1` [test compound 2, [5-(2,5-dichlorothiophene-3-yl)-3-[(2-dimethylaminoethyl)carbamoyl]benzoyl]guanidine dihydrochloride], the “effect on bladder contractile force” value (1 mg/kg) is “without significantly affecting”. For the same compound, the “bladder contractile frequency, %” value (1 mg/kg, p<0.05) was determined as 22%.

Regarding `CC(C)c1ccc(C(=O)NC(=N)N)cc1S(C)(=O)=O.CS(=O)(=O)O` [test compound 1, 4-isopropyl-3-methylsulfonylbenzoyl guanidine methanesulfonate], the “effect on bladder contractile force” value (3.2 mg/kg) is on record as “without significantly affecting”. In addition, the “bladder contractile frequency, %” value (3.2 mg/kg, p<0.01) is reported as 25%.
